# Experiments:
# [1] = Non-cytotoxic IMS activity (ratio LcV/MLR) was determined; type: functional
# [2] = species on record: Mus musculus; assay: Tested for immunosuppressive activity in mouse using allogenic MLR method; type: functional, organism-based
# [3] = Tested in vitro for cytotoxicity against […](LcV) in cells; type: functional
# [4] = system: Mus musculus; assay: Tested in vivo for immunosuppressive activity in mouse using allogenic skin grafting technique(SG); graft survival relative to cyclophosphamide at a dose of 0.15 mg/kg; type: functional
# [5] = system: Mus musculus; assay: Tested in vivo for immunosuppressive activity in mouse using graft vs. Host rejection technique(GVHR); spleen weight normalized to D8 body weight at a dose of 15.0 mg/kg; type: functional
# [6] = system: Mus musculus; assay: Tested in vivo for immunosuppressive activity in mouse using graft vs. Host rejection technique(GVHR); % suppression at a dose of 0.15 mg/kg; type: functional
# [7] = system: Mus musculus; assay: Tested in vivo for immunosuppressive activity in mouse using allogenic skin grafting technique(SG); graft survival relative to cyclophosphamide at a dose of 15.0 mg/kg; type: functional
# [8] = system: Mus musculus; assay: Tested in vivo for immunosuppressive activity in mouse using graft vs. Host rejection technique(GVHR); body weight at a dose of 1.5 mg/kg; type: functional
# [9] = system: Mus musculus; assay: Tested in vivo for immunosuppressive activity in mouse using allogenic skin grafting technique(SG); mean graft survival at a dose of 1.5 mg/kg; type: functional
# [10] = system: Mus musculus; assay: Tested in vivo for immunosuppressive activity in mouse using graft vs. Host rejection technique(GVHR); spleen index at a dose of 1.5 mg/kg; type: functional
# [11] = system: Mus musculus; assay: Tested in vivo for immunosuppressive activity in mouse using allogenic skin grafting technique(SG); graft survival relative to cyclophosphamide at a dose of 1.5 mg/kg; type: functional
# [12] = system: Mus musculus; assay: Tested in vivo for immunosuppressive activity in mouse using allogenic skin grafting technique(SG); weight lost at a dose of 1.5 mg/kg; type: functional
# [13] = system: Mus musculus; assay: Tested in vivo for immunosuppressive activity in mouse using allogenic skin grafting technique(SG); mean graft survival at a dose of 0.15 mg/kg; type: functional
# [14] = system: Mus musculus; assay: Tested in vivo for immunosuppressive activity in mouse using allogenic skin grafting technique(SG); weight at a dose of 1.5 mg/kg; type: functional
# [15] = system: Mus musculus; assay: Tested in vivo for immunosuppressive activity in mouse using graft vs. Host rejection technique(GVHR); weight change at a dose of 0.15 mg/kg; type: functional
# [16] = system: Mus musculus; assay: Tested in vivo for immunosuppressive activity in mouse using graft vs. Host rejection technique(GVHR); body weight at a dose of 0.15 mg/kg; type: functional
# [17] = system: Mus musculus; assay: Tested in vivo for immunosuppressive activity in mouse using graft vs. Host rejection technique(GVHR); weight change at a dose of 1.5 mg/kg; type: functional
# [18] = system: Mus musculus; assay: Tested in vivo for immunosuppressive activity in mouse using graft vs. Host rejection technique(GVHR); spleen weight normalized to D8 body weight at a dose of 0.15 mg/kg; type: functional
# [19] = system: Mus musculus; assay: Tested in vivo for immunosuppressive activity in mouse using allogenic skin grafting technique(SG); weight at a dose of 0.15 mg/kg; type: functional
# [20] = system: Mus musculus; assay: Tested in vivo for immunosuppressive activity in mouse using graft vs. Host rejection technique(GVHR); spleen weight normalized to D8 body weight at a dose of 1.5 mg/kg; type: functional
# [21] = system: Mus musculus; assay: Tested in vivo for immunosuppressive activity in mouse using graft vs. Host rejection technique(GVHR); % suppression at a dose of 15.0 mg/kg; type: functional
# [22] = system: Mus musculus; assay: Tested in vivo for immunosuppressive activity in mouse using allogenic skin grafting technique(SG); weight lost at a dose of 0.15 mg/kg; type: functional
# [23] = system: Mus musculus; assay: Tested in vivo for immunosuppressive activity in mouse using graft vs. Host rejection technique(GVHR); spleen index at a dose of 0.15 mg/kg; type: functional
# [24] = system: Mus musculus; assay: Tested in vivo for immunosuppressive activity in mouse using graft vs. Host rejection technique(GVHR); body weight at a dose of 15.0 mg/kg; type: functional
# [25] = system: Mus musculus; assay: Tested in vivo for immunosuppressive activity in mouse using allogenic skin grafting technique(SG); weight at a dose of 15 mg/kg; type: functional
# [26] = system: Mus musculus; assay: Tested in vivo for immunosuppressive activity in mouse using graft vs. Host rejection technique(GVHR); % suppression at a dose of 15 mg/kg; type: functional
# [27] = system: Mus musculus; assay: Tested in vivo for immunosuppressive activity in mouse using allogenic skin grafting technique(SG); mean graft survival at a dose of 15.0 mg/kg; type: functional
# [28] = system: Mus musculus; assay: Tested in vivo for immunosuppressive activity in mouse using graft vs. Host rejection technique(GVHR); weight change at a dose of 15.0 mg/kg; type: functional
# [29] = system: Mus musculus; assay: Tested in vivo for immunosuppressive activity in mouse using graft vs. Host rejection technique(GVHR); % suppression at a dose of 1.5 mg/kg; type: functional
# [30] = system: Mus musculus; assay: Tested in vivo for immunosuppressive activity in mouse using graft vs. Host rejection technique(GVHR); spleen index at a dose of 15.0 mg/kg; type: functional
# [31] = system: Mus musculus; assay: Tested in vivo for immunosuppressive activity in mouse using graft vs Host rejection technique(GVHR); body weight at a dose of 1.5 mg/kg; type: functional
# [32] = system: Mus musculus; assay: Tested in vivo for immunosuppressive activity in mouse using graft vs Host rejection technique(GVHR); spleen index at a dose of 0.15 mg/kg; type: functional
# [33] = system: Mus musculus; assay: Tested in vivo for immunosuppressive activity in mouse using graft vs Host rejection technique(GVHR); weight change at a dose of 15.0 mg/kg on day 5; type: functional
# [34] = system: Mus musculus; assay: Tested in vivo for immunosuppressive activity in mouse using graft vs Host rejection technique(GVHR); % suppression at a dose of 15.0 mg/kg; type: functional
# [35] = system: Mus musculus; assay: Tested in vivo for immunosuppressive activity in mouse using graft vs Host rejection technique(GVHR); weight at a dose of 15 mg/kg; type: functional
# [36] = system: Mus musculus; assay: Tested in vivo for immunosuppressive activity in mouse using graft vs Host rejection technique(GVHR); weight change at a dose of 1.5 mg/kg on day 5; type: functional
# [37] = system: Mus musculus; assay: Tested in vivo for immunosuppressive activity in mouse using graft vs Host rejection technique(GVHR); spleen weight normalized to D8 body weight at a dose of 0.15 mg/kg; type: functional
# [38] = system: Mus musculus; assay: Tested in vivo for immunosuppressive activity in mouse using allogenic skin grafting technique(SG); weight lost at a dose of 1.5 mg/kg on day 5; type: functional
# [39] = system: Mus musculus; assay: Tested in vivo for immunosuppressive activity in mouse using graft vs Host rejection technique(GVHR); spleen weight normalized to D8 body weight at a dose of 15.0 mg/kg; type: functional
# [40] = system: Mus musculus; assay: Tested in vivo for immunosuppressive activity in mouse using graft vs Host rejection technique(GVHR); spleen index at a dose of 1.5 mg/kg; type: functional
# [41] = system: Mus musculus; assay: Tested in vivo for immunosuppressive activity in mouse using graft vs Host rejection technique(GVHR); body weight at a dose of 0.15 mg/kg; type: functional
# [42] = system: Mus musculus; assay: Tested in vivo for immunosuppressive activity in mouse using graft vs Host rejection technique(GVHR); body weight at a dose of 15.0 mg/kg; type: functional
# [43] = system: Mus musculus; assay: Tested in vivo for immunosuppressive activity in mouse using graft vs Host rejection technique(GVHR); weight change at a dose of 0.15 mg/kg on day 5; type: functional
# [44] = system: Mus musculus; assay: Tested in vivo for immunosuppressive activity in mouse using graft vs Host rejection technique(GVHR);% suppression at a dose of 1.5 mg/kg; type: functional
# [45] = system: Mus musculus; assay: Tested in vivo for immunosuppressive activity in mouse using allogenic skin grafting technique(SG); mean graft survival at a dose of 15 mg/kg; type: functional
# [46] = system: Mus musculus; assay: Tested in vivo for immunosuppressive activity in mouse using graft vs Host rejection technique(GVHR); spleen weight normalized to D8 body weight at a dose of 1.5 mg/kg; type: functional
# [47] = system: Mus musculus; assay: Tested in vivo for immunosuppressive activity in mouse using graft vs Host rejection technique(GVHR); spleen index at a dose of 15.0 mg/kg; type: functional
# [48] = system: Mus musculus; assay: Tested in vivo for immunosuppressive activity in mouse using allogenic skin grafting technique(SG); graft survival relative to cyclophosphamide at a dose of 25.0 mg/kg; type: functional
# [49] = system: Mus musculus; assay: Tested in vivo for immunosuppressive activity in mouse using allogenic skin grafting technique(SG); mean graft survival at a dose of 25.0 mg/kg; type: functional
# [50] = system: Mus musculus; assay: Tested in vivo for immunosuppressive activity in mouse using graft vs. Host rejection technique(GVHR); weight change at a dose of 25.0 mg/kg; type: functional
structure (smiles),measurement,setting,value
COc1cc([C@@H]2c3cc4c(cc3[C@H](O)[C@H]3COC(=O)[C@H]23)OCO4)cc(OC)c1OC [PODOFILOX],Ratio,[1],>2187
same,IC50,[2],< 128 ng/mL
same,Cytotoxicity,[3],280 µg/mL
COc1cc([C@@H]2c3cc(OC(C)=O)c(OC(C)=O)cc3[C@@H](OC(C)=O)[C@H]3COC(=O)[C@H]23)cc(OC)c1OC,Ratio,[1],>67
same,IC50,[2],427 ng/mL
same,Cytotoxicity,[3],>28.5 µg/mL
COc1cc([C@@H]2c3cc(O)c(O)cc3C[C@H]3COC(=O)[C@@H]32)cc(OC)c1OC,Ratio,[1],>43
same,IC50,[2],585 ng/mL
same,Cytotoxicity,[3],>25 µg/mL
COc1cc([C@H]2C3=C(COC3=O)Cc3cc4c(cc32)OCO4)cc(OC)c1OC,Ratio,[1],>3333
same,IC50,[2],< 8.55 ng/mL
same,Cytotoxicity,[3],>28.5 µg/mL
COc1cc([C@@H]2c3cc4c(cc3[C@@H](O)[C@H]3COC(=O)[C@H]23)OCO4)cc(OC)c1OC [EPIPODOPHYLLOTOXIN],Ratio,[1],>284
same,IC50,[2],229 ng/mL
same,Cytotoxicity,[3],>65 µg/mL
COc1cc([C@@H]2c3cc(O)c(O)cc3[C@@H](O)[C@H]3COC(=O)[C@H]23)cc(OC)c1OC,graft survival,[4],1.12 days
same,Spleen weight,[5],5.02 g
same,Activity,[6],170%
same,graft survival,[7],0.99 days
same,Body weight,[8],15.8 g
same,Mean graft survival,[9],11 days
same,SI,[10],0.88
same,graft survival,[11],1.12 days
same,Body weight,[12],1 g
same,Mean graft survival,[13],11 days
same,Body weight,[14],18.5 g
same,Weight change,[15],0%
same,Body weight,[16],17 g
same,Weight change,[17],1.9%
same,Spleen weight,[18],4.05 g
same,Body weight,[19],18.3 g
same,Spleen weight,[20],4.4 g
same,Activity,[21],100%
same,Body weight,[22],0.6 g
same,SI,[23],0.81
same,Body weight,[24],16.3 g
same,Body weight,[25],0.2 g
same,Body weight,[26],18.2 g
same,Mean graft survival,[27],9.7 days
same,Weight change,[28],-3%
same,Ratio,[1],>23333333
same,Activity,[29],144%
same,IC50,[2],0.015 ng/mL
same,Cytotoxicity,[3],>35 µg/mL
same,SI,[30],1
COc1cc([C@@H]2c3cc(OC(C)=O)c(OC(C)=O)cc3[C@H](OC(C)=O)[C@H]3COC(=O)[C@H]23)cc(OC)c1OC,Ratio,[1],>428
same,IC50,[2],60.7 ng/mL
same,Cytotoxicity,[3],>26 µg/mL
COc1cc([C@H]2C3=C(COC3=O)Cc3cc(OC(C)=O)c(OC(C)=O)cc32)cc(OC)c1OC,Ratio,[1],>78
same,IC50,[2],366 ng/mL
same,Cytotoxicity,[3],>28.5 µg/mL
COc1cc([C@@H]2c3cc4c(cc3C3=NOC[C@H]3[C@@H]2C(=O)O)OCO4)cc(OC)c1OC,Body weight,[31],16 g
same,graft survival,[4],1.14 days
same,SI,[32],1.14
same,Mean graft survival,[9],6.8 days
same,graft survival,[11],0.69 days
same,Weight change,[33],1.8%
same,Mean graft survival,[13],11.2 days
same,Body weight,[14],18.7 g
same,Activity,[34],148%
same,Body weight,[35],17.8 g
same,Body weight,[19],19 g
same,Weight change,[36],0%
same,Spleen weight,[37],5.7 g
same,Body weight,[22],0.5 g
same,Body weight,[38],1.7 g
same,Spleen weight,[39],6.34 g
same,Ratio,[1],>3333
same,SI,[40],0.87
same,Body weight,[41],15.8 g
same,Body weight,[42],16.5 g
same,Weight change,[43],3.1%
same,Activity,[44],48%
same,IC50,[2],< 9 ng/mL
same,Cytotoxicity,[3],>30 µg/mL
same,Mean graft survival,[45],0.9 days
same,Spleen weight,[46],4.35 g
same,SI,[47],1.27
C/C=C/C[C@@H](C)[C@@H](O)[C@H]1C(=O)N[C@@H](CC)C(=O)N(C)CC(=O)N(C)[C@@H](CC(C)C)C(=O)N[C@@H](C(C)C)C(=O)N(C)[C@@H](CC(C)C)C(=O)N[C@@H](C)C(=O)N[C@H](C)C(=O)N(C)[C@@H](CC(C)C)C(=O)N(C)[C@@H](CC(C)C)C(=O)N(C)[C@@H](C(C)C)C(=O)N1C [CYCLOSPORINE],graft survival,[48],1 days
same,Mean graft survival,[49],9.8 days
same,Weight change,[50],2.7%
